Reference: patent US12234507B2, “Compositions and methods for targeted masking of autofluorescence” (10x Genomics, Inc., priority 2022, dated 2025)

Key:
[1] = tested on: FFPE human tonsil tissues; test: Autofluorescence masking over multiple cycles in FFPE human tonsil tissue
Description: Formalin-fixed paraffin embedded (FFPE) human tonsil and liver tissues were obtained for this example. The samples were sectioned to 5 μm thickness and transferred to Superfrost® Plus slides. The samples were treated multiple times with Histo-Clear® and citrate buffer to remove the embedded paraffin and incubated overnight with nucleic acid probes targeting epithelial genes. The next day, the samples were washed with wash buffers to remove excess or unbound probes. The probes were then ligated in the presence of ligase, RNAase inhibitor and ligation buffer for 2 hours. Subsequently, the ligation products were amplified overnight using polymerases and amplification buffers. The samples were then stained using fluorescently labelled probes. Prior to staining, the samples with treated with DTT (1 mM) for 10 minutes and quenchers with different concentrations of the compound 1A (0.1 mM, 0.5 mM, and 0.8 mM). Images of control samples without compound 1A treatment were obtained for comparison. Samples were imaged in two field of views (FOVs) to control for photo bleaching. Once imaged, the fluorescently labelled probes were stripped using a denaturing agent and contacted with additional detectable probes before the next imaging round. In this manner, multiple rounds of stripping, re-probing, and imaging of signals associated with the fluorescently labelled probes, were performed without any additional quenching steps.

[2] = tested on: fresh frozen (FrF) mouse brain tissues (dentate gyrus, cortex); test: Targeted masking of autofluorescence, in situ imaging of fresh frozen mouse brain tissue sections
Description: (§1) Formalin-fixed paraffin embedded (FFPE) human brain tissues and fresh frozen (FrF) mouse brain tissues were obtained for this example. The samples were sectioned to 10 μm thickness and transferred to Superfrost® Plus slides. The FFPE human brain tissues were treated multiple times with Histo-Clear® and citrate buffer to remove the embedded paraffin. The FrF mouse brain samples were fixed using 3.7% formaldehyde for 5 minutes. The slides were then incubated with nucleic acid probes targeting genes of interest. The nucleic acid probes were allowed to hybridize overnight in hybridization buffer at 37° C. The next day, the samples were washed using wash buffers to remove excess or unbound probes. The probes were then ligated in the presence of ligase, RNAase inhibitor and ligation buffer for 2 hours. Subsequently, the ligation products were amplified overnight using polymerases and amplification buffers. The samples were then stained using fluorescently labelled probes. Finally, the quenching agent compound 1A was dissolved in DMF (at 18 mM), diluted with 70% ethanol to provide solutions of compound 1A at concentrations of 3.6 mM, 1.8 mM, and 0.9 mM. These solutions were applied to the samples prior to imaging. Once imaged, the fluorescently labelled probes were stripped using a denaturing agent and contacted with additional detectable probes before the next imaging round. In this manner, multiple rounds of stripping, re-probing, and imaging of signals associated with the fluorescently labelled probes, were performed without any additional quenching steps.
(§2) To improve the binding of compound 1A to tissue moieties responsible for autofluorescence, the FrF mouse brain tissues were treated with dithiothreitol (DTT, 50 mM) and 2% TEA for 10 minutes before quenching with compound 1A. DTT reduces disulfide bridges in the tissues thereby increasing the thiol content for improved binding of compound 1A. Alternatively, the tissues were treated with a combination of 2,5-dioxopyrrolidin-1-yl 3-oxo-1-(pyridin-2-yldisulfaneyl)-7,10,13,16-tetraoxa-4-azanonadecan-19-oate (PEG4-SPDP), a derivative of succinimidyl 3-(2-pyridyldithio) propionate (SPDP) comprising an internal tetraoligoethylene linker, and DTT, to convert amines to thiols and reduce any disulfide bridges to increase thiol content. For the reduction only treatment, the tissues were treated with DTT (50 mM for 10 minutes). […] FIGS. 3A and 3C depict the fluorescence for the dentate gyrus and cortex portions prior to quenching, in which punctuate fluorescence signals were associated with rolling circle amplification products, and amorphous background fluorescence was detected.

[3] = tested on: FFPE human brain tissues; test: Masking autofluorescence of FFPE human brain tissue with quencher analogues; conditions: for background signal compared to unquenched tissues: quencher 1 mM 30 min, 50 mM DTT, all four channels 488, 532, 590, 647 nm (FIGS. 7A-7D); for detected object local mean signal-to-noise ratio: quencher 1 mM, 590 nm and 647 nm (FIGS. 8B, 8C)
Description: Formalin-fixed paraffin embedded (FFPE) human brain tissues were treated using the protocol described in Example 1 and further treated using 50 mM DTT for 30 minutes. Next, the tissues were incubated with the quenchers (1 mM) for 30 minutes prior to staining. Staining was performed using nucleic acid probes targeting an anchor sequence which is present within all of the RCPs and targeting epithelial genes-rp1p0, malat1, and actb. The tissues were stained with the quencher compounds 1A, 2A, 1B, 3B, a combination of quenchers 1A and 3B, or a commercial quencher (Table 1, for comparison).

[4] = tested on: FFPE human brain tissues; test: Targeted masking of autofluorescence, in situ imaging of FFPE human brain tissue
Description: as §1
as §2, with “minutes). For the conversion of amines to thiols and subsequent reduction, the tissues were treated first with PEG4-SPDP (10 mM) for 10 minutes, followed by treatment with DTT (50 mM) and compound 1A (0.9 mM). PEG4-SPDP is a multifunctional crosslinker for protein conjugation via amine-to-amine or amine-to-sulfhydryl crosslinks that contain a 4-unit polyethylene glycol (PEG) group and a reducible (cleavable) disulfide bond. The tissues were then washed prior to or after staining. […] Results were compared to the tissues incubated with a native thiol targeting group (control group).” for “minutes).”
Further studies were conducted on FFPE human brain tissue that were enriched for binding moieties in the tissue via treatment with DTT or with DTT and PEG4-SPDP. FIG. 5 depicts the signal-to-noise ratio increased post-quenching with DTT/Compound 1A and PEG4-SPDP-DTT/Compound 1A, and was maintained after stripping with DMSO treatment and rehybridization of fluorescent probes.

[5] = stripping of fluorescently labeled probes and rehybridization
[6] = PEG4-SPDP-DTT/Compound 1A (FIG. 5)

COc1cc(/N=N/c2ccc([N+](=O)[O-])cc2)c(OC)cc1/N=N/c1ccc(N(C)CCCN2C(=O)C=CC2=O)cc1 [Compound 1A]
detected object density ([1]; 0.1, 0.5 and 0.8 mM, 488 nm (FIGS. 10A-10C)): increase
detected object local signal-to-noise ratio ([1]; 0.1, 0.5 and 0.8 mM, 488 nm (FIGS. 11A-11C)): Increased
background signal compared to unquenched tonsil tissues ([1]; 0.1, 0.5 and 0.8 mM, 488 nm, cycles 5-7 vs 1-3, multiple cycles of stripping and reprobing (FIGS. 9A-9C)): Significant reduction
background noise across all four wavelengths measured ([1]; 488, 532, 590, 647 nm (data for additional wavelengths not shown)): reduced background noise was maintained
signal intensity ([1]; 488 nm, after quenching): reduced
detected objected signal intensity above local background ([1]; quenched tissue, 488 nm, exposure time increased from 10 ms to 30 ms (FIG. 12)): significantly improved
staining of the tissues with the targeting chemistry ([2]; FrF mouse brain, DTT or PEG4-SPDP/DTT enrichment, compared to native thiol control group): efficiently stain
background signal ([2]; after stripping with DMSO, treatment with compound 1A and rehybridization with additional probes): significantly reduced
background in dentate gyrus (DG) and cortex samples ([2]; mouse brain, quenched vs prior to quenching (FIGS. 3A-3D)): efficiently reduced
autofluorescence quenching effect after stripping [2, 5]: retained
background signal compared to unquenched tissues [3]: significant reduction
detected object local mean signal-to-noise ratio [3]: improved
background in human brain tissues [4]: efficiently reduced
signal to background ratio after 5 cycles of stripping and rehybridizing ([4]; 488 nm, 590 nm, 532 nm and 647 nm, single quenching application (FIGS. 6A-6D)): maintained
signal-to-noise ratio after stripping with DMSO and rehybridization of fluorescent probes ([4]; DTT/Compound 1A (FIG. 5)): maintained
signal-to-noise ratio post-quenching ([4]; DTT/Compound 1A (FIG. 5)): increased
signal-to-noise ratio after stripping with DMSO and rehybridization of fluorescent probes [4, 6]: maintained
signal-to-noise ratio post-quenching [4, 6]: increased
retention of quencher on tissues through multiple detection cycles ([4]; covalently bound, no repeated quenching steps): retained
autofluorescence quenching effect after stripping [4, 5]: retained

COc1cc(/N=N/c2ccc([N+](=O)[O-])cc2)c(OC)cc1/N=N/c1ccc(N(C)CCCC(=O)ON2C(=O)CCC2=O)cc1 [Compound 1B]
background signal compared to unquenched tissues [3]: significant reduction
detected object local mean signal-to-noise ratio [3]: improved

COc1cc(/N=N/c2c(Cl)cc([N+](=O)[O-])cc2Cl)c(OC)cc1/N=N/c1ccc(N(C)CCCN2C(=O)C=CC2=O)cc1 [Compound 2A]
background signal compared to unquenched tissues [3]: significant reduction
detected object local mean signal-to-noise ratio [3]: improved

CCN(CC)c1ccc2nc3ccc(/N=N/c4ccc(N(C)CCCC(=O)ON5C(=O)CCC5=O)cc4)cc3[n+](-c3ccccc3)c2c1 [Compound 3B]
background signal compared to unquenched tissues [3]: significant reduction
